# Laboratory results from patent US20240208992A1, “MACROCYCLES AS CFTR MODULATORS” (Idorsia Pharmaceuticals Ltd, priority 2021, published 2024).
# Target: human F508del-CFTR (Homo sapiens, UniProt P13569, DEL508-508)
# Assay: F508del-CFTR cell surface expression (corrector activity), DiscoveRx ß-galactosidase complementation chemiluminescence assay in recombinant U2OS cell line;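 further: U2OS cells co-expressing ProLink-tagged F508del-CFTR and a membrane-anchored enzyme acceptor, where more surface CFTR restores β-galactosidase activity measured by chemiluminescence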
# Details: for EC50: EC50, F508del-CFTR cell surface expression; for Emax: U2OS
# [1] = U2OS cells, 16h compound incubation, geomean values
# [2] = in relation to Emax of corrector lumacaftor (=100%), arithmetic mean values
# [3] = U2OS cell line, 16h compound incubation, geomean values
# [4] = in relation to the Emax of the corrector lumacaftor (=100%), U2OS cell line, 16h compound incubation, arithmetic mean values
# [5] = U2OS cells, 16h compound incubation, geomean of several measurements
# [6] = in relation to the Emax of the corrector lumacaftor (=100%), U2OS cells, 16h compound incubation, arithmetic mean
# Sequence of human F508del-CFTR (P13569 with tags, fused parts or gaps DEL508-508): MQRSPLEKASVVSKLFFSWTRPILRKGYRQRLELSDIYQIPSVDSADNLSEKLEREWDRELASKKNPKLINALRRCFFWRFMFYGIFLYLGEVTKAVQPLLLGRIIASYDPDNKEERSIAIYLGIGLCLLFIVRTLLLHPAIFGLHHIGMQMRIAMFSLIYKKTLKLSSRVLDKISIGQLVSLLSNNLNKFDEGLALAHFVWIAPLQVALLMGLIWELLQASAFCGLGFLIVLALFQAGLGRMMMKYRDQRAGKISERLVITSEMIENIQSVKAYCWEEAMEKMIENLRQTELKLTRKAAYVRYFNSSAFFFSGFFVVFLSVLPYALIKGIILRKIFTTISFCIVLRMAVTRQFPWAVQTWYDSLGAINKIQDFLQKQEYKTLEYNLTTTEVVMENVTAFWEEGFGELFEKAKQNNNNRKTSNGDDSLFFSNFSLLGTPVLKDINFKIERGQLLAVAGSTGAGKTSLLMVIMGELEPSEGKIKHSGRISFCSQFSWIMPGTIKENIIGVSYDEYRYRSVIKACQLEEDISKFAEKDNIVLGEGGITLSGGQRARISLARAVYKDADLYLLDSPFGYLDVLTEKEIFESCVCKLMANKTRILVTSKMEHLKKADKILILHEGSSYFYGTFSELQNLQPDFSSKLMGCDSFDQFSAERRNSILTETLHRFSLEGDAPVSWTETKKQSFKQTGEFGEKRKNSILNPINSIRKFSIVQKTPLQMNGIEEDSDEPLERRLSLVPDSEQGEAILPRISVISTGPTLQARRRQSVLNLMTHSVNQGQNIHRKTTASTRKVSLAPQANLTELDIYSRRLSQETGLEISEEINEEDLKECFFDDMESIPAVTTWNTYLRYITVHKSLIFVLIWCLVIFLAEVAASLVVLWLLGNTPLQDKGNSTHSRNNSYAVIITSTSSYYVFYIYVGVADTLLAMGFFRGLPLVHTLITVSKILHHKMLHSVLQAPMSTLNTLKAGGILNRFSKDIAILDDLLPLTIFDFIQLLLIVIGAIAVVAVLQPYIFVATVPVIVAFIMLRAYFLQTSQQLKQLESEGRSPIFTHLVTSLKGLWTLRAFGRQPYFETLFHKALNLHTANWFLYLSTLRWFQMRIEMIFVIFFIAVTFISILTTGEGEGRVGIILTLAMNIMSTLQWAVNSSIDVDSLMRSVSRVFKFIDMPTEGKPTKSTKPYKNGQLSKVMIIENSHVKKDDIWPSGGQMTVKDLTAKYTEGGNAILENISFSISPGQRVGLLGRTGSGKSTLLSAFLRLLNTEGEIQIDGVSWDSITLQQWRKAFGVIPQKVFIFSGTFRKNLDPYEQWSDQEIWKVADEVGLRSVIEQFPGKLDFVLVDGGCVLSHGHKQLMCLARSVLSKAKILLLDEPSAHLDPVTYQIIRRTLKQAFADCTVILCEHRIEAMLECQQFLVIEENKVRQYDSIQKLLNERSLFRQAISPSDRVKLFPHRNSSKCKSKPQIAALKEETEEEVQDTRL
SMILES,EC50 [1] [nM],Emax [2] [%],EC50 [3] [nM],Emax [4] [%],further results
"COCCCN1C(=O)[C@H](CC(C)C)N(C)C(=O)C[C@@H](C(=O)NCCc2cccc(OC)c2)NC(=O)c2c(ccc3ccccc23)OC[C@@H](Cc2ccccc2)NC(=O)C12CC2 [Example 396, (3′S,7′S,13′R)-13′-benzyl-7′-isobutyl-N-(3-methoxyphenethyl)-9′-(3-methoxypropyl)-6′-methyl-1′,5′,8′,11′-tetraoxo-2′,3′,4′,5′,6′,7′,8′,9′,11′,12′,13′,14′-dodecahydro-1′H-spiro[cyclopropane-1,10′-naphtho[1,2-p][1]oxa[4,7,10,14]tetraazacycloheptadecine]-3′-carboxamide]",,,241,190,
"CC(C)C[C@H]1C(=O)N(C)C2(CC2)C(=O)N[C@H](Cc2ccccc2)COc2cnc3ccc(F)cc3c2C(=O)N[C@H](C(=O)NCCc2cnn(C3CC3)c2)CC(=O)N1C [Example 139, (3′S,7′S,13′R)-13′-benzyl-N-(2-(1-cyclopropyl-1H-pyrazol-4-yl)ethyl)-20′-fluoro-7′-isobutyl-6′,9′-dimethyl-1′,5′,8′,11′-tetraoxo-2′,3′,4′,5′,6′,7′,8′,9′,11′,12′,13′,14′-dodecahydro-1′H-spiro[cyclopropane-1,10′-[1]oxa[4,7,10,14]tetraazacycloheptadecino[17,16-c]quinoline]-3′-carboxamide]",,,463,381,
"COc1cccc(CCNC(=O)[C@@H]2CC(=O)N(C)[C@@H](CC(C)C)C(=O)N(C)C3(CC3)C(=O)N[C@H](Cc3ccccc3)COc3ccc4c(c3C(=O)N2)OCC4)c1 [Example 447, (8R,14S,18S)-8-benzyl-14-isobutyl-N-(3-methoxyphenethyl)-12,15-dimethyl-10,13,16,20-tetraoxo-2,3,7,8,9,10,13,14,15,16,17,18,19,20-tetradecahydro-12H-spiro[benzofuro[7,6-p][1]oxa[4,7,10,14]tetraazacycloheptadecine-11,1′-cyclopropane]-18-carboxamide]",447,220,,,
"COc1nc(C)cc2c1C(=O)N[C@H](C(=O)NCCc1cc(C)no1)CC(=O)N(C)[C@@H](CC(C)C)C(=O)N(C)[C@H](CC(C)(C)C)C(=O)N[C@H](Cc1ccccc1)CO2 [Example 876, (3R,6R,9S,13S)-3-benzyl-9-isobutyl-16-methoxy-7,10,18-trimethyl-N-(2-(3-methylisoxazol-5-yl)ethyl)-6-neopentyl-5,8,11,15-tetraoxo-2,3,4,5,6,7,8,9,10,11,12,13,14,15-tetradecahydropyrido[3,4-p][1]oxa[4,7,10,14]tetraazacycloheptadecine-13-carboxamide]",,,,,EC50 [5]: 113 nM; Emax [6]: 317%
"COc1cccc(CCNC(=O)[C@@H]2CC(=O)N(C)[C@@H](CC3CCCCC3)C(=O)N(C[C@H]3CCCCO3)CC(=O)N[C@H](Cc3ccccc3)COc3ccc4ccccc4c3C(=O)N2)c1 (racemic) [Example 296, (3RS,7S,13R)-13-benzyl-7-(cyclohexylmethyl)-N-(3-methoxyphenethyl)-6-methyl-1,5,8,11-tetraoxo-9-(((R)-tetrahydro-2H-pyran-2-yl)methyl)-1,2,3,4,5,6,7,8,9,10,11,12,13,14-tetradecahydronaphtho[1,2-p][1]oxa[4,7,10,14]tetraazacycloheptadecine-3-carboxamide]",,,,144,
"COc1noc(CCNC(=O)[C@@H]2CC(=O)N(C)[C@@H](CC(C)C)C(=O)N3CCCC[C@@H]3C(=O)N[C@H](Cc3ccccc3)COc3cnc4ccc(F)cc4c3C(=O)N2)n1 [Example 930, (9S,13S,19aR,22R)-22-benzyl-5-fluoro-13-isobutyl-N-(2-(3-methoxy-1,2,4-oxadiazol-5-yl)ethyl)-12-methyl-7,11,14,20-tetraoxo-7,8,9,10,11,12,13,14,17,18,19,19a,20,21,22,23-hexadecahydro-16H-pyrido[2′,1′:6,7][1]oxa[4,7,10,14]tetraazacycloheptadecino[17,16-c]quinoline-9-carboxamide]",,,,,EC50 [5]: 142 nM; Emax [6]: 460%
"COc1cccc(CCNC(=O)[C@@H]2CC(=O)N(C)[C@@H](CC(C)C)C(=O)N(C)CC(=O)N[C@H](Cc3ccccc3)COc3cnc4ccccc4c3C(=O)N2)c1 [Example 319, (3S,7S,13R)-13-benzyl-7-isobutyl-N-(3-methoxyphenethyl)-6,9-dimethyl-1,5,8,11-tetraoxo-1,2,3,4,5,6,7,8,9,10,11,12,13,14-tetradecahydro-[1]oxa[4,7,10,14]tetraazacycloheptadecino[17,16-c]quinoline-3-carboxamide]",,,574,296,
"Cc1cc2c3c(ccc2cn1)OC[C@@H](Cc1ccccc1)NC(=O)[C@@H](CC(F)(F)F)N(C)C(=O)[C@H](CC(C)C)N(C)C(=O)C[C@@H](C(=O)NCCn1nnc(C2CC2)n1)NC3=O [Example 959, (3S,7S,10R,13R)-13-benzyl-N-(2-(5-cyclopropyl-2H-tetrazol-2-yl)ethyl)-7-isobutyl-6,9,20-trimethyl-1,5,8,11-tetraoxo-10-(2,2,2-trifluoroethyl)-1,2,3,4,5,6,7,8,9,10,11,12,13,14-tetradecahydro-[1]oxa[4,7,10,14]tetraazacycloheptadecino[16,17-f]isoquinoline-3-carboxamide]",,,,,EC50 [5]: 222 nM; Emax [6]: 413%
"CC(C)C[C@H]1C(=O)N(C[C@H]2CCCCO2)CC(=O)N[C@H](Cc2ccccc2)COc2ccc3ccccc3c2C(=O)N[C@H](C(=O)NCCc2ccc3c(c2)OCO3)CC(=O)N1C (mixture of isomers) [Example 162, (3RS,7S,13R)-N-(2-(benzo[d][1,3]dioxol-5-yl)ethyl)-13-benzyl-7-isobutyl-6-methyl-1,5,8,11-tetraoxo-9-(((R)-tetrahydro-2H-pyran-2-yl)methyl)-1,2,3,4,5,6,7,8,9,10,11,12,13,14-tetradecahydronaphtho[1,2-p][1]oxa[4,7,10,14]tetraazacycloheptadecine-3-carboxamide]",,,472,,
"COc1cccc(CCNC(=O)[C@@H]2CC(=O)N(C)[C@@H](CC(C)C)C(=O)N(C)C3(CC3)C(=O)N[C@H](Cc3ccccc3)COc3ccc(OC)nc3C(=O)N2)c1 [Example 488, (3′R,9′S,13′S)-3′-benzyl-9′-isobutyl-17′-methoxy-N-(3-methoxyphenethyl)-7′,10′-dimethyl-5′,8′,11′,15′-tetraoxo-2′,3′,4′,5′,8′,9′,10′,11′,12′,13′,14′,15′-dodecahydro-7′H-spiro[cyclopropane-1,6′-pyrido[2,3-p][1]oxa[4,7,10,14]tetraazacycloheptadecine]-13′-carboxamide]",910,270,,,
"COc1cccc(CCNC(=O)[C@@H]2CC(=O)N(C)[C@@H](CC(C)C)C(=O)NC3(CC3)C(=O)N[C@H](Cc3ccccc3)COc3ccc4ccccc4c3C(=O)N2)c1 [Example 386, (3′S,7′S,13′R)-13′-benzyl-7′-isobutyl-N-(3-methoxyphenethyl)-6′-methyl-1′,5′,8′,11′-tetraoxo-2′,3′,4′,5′,6′,7′,8′,9′,11′,12′,13′,14′-dodecahydro-1′H-spiro[cyclopropane-1,10′-naphtho[1,2-p][1]oxa[4,7,10,14]tetraazacycloheptadecine]-3′-carboxamide]",,,393,149,
"CC(C)C[C@H]1C(=O)N(CCC2CCCOC2)CC(=O)N[C@H](Cc2ccccc2)COc2ccc3ccccc3c2C(=O)N[C@H](C(=O)NCCc2ccc3c(c2)OCO3)CC(=O)N1C (stereo partly drawn) [Example 333, (3S,7S,13R)-N-(2-(benzo[d][1,3]dioxol-5-yl)ethyl)-13-benzyl-7-isobutyl-6-methyl-1,5,8,11-tetraoxo-9-(2-(tetrahydro-2H-pyran-3-yl)ethyl)-1,2,3,4,5,6,7,8,9,10,11,12,13,14-tetradecahydronaphtho[1,2-p][1]oxa[4,7,10,14]tetraazacycloheptadecine-3-carboxamide]",,,345,182,
"Cc1nc2ccc3c(c2o1)C(=O)N[C@H](C(=O)NCCc1cc(C(C)C)no1)CC(=O)N(C)[C@@H](CC(C)C)C(=O)N(C)C1(CC1)C(=O)N[C@H](Cc1ccccc1)CO3 [Example 762, (8′R,14'S,18'S)-8′-Benzyl-14′-isobutyl-N-(2-(3-isopropylisoxazol-5-yl)ethyl)-2′,12′,15′-trimethyl-10′,13′,16′,20′-tetraoxo-7′,8′,9′,10′,13′,14′,15′,16′,17′,18′,19′,20′-dodecahydro-12′H-spiro[cyclopropane-1,11′-oxazolo[4′,5′:5,6]benzo[1,2-p][1]oxa[4,7,10,14]tetraazacycloheptadecine]-18′-carboxamide]",929,333,,,

# The next lines start with results.
EC50 [1] [nM],Emax [2] [%],SMILES,EC50 [3] [nM],Emax [4] [%],further results
168,270,"CCOC(=O)N1CCN2C(=O)[C@H](CC(C)C)N(C)C(=O)C[C@@H](C(=O)NCCc3cccc(OC)c3)NC(=O)c3c(ccc4ccccc34)OC[C@@H](Cc3ccccc3)NC(=O)[C@H]2C1 [Example 755, ethyl (4aR,7R,18S,22S)-7-benzyl-22-isobutyl-18-((3-methoxyphenethyl)carbamoyl)-21-methyl-5,16,20,23-tetraoxo-1,2,4,4a,5,6,7,8,16,17,18,19,20,21,22,23-hexadecahydro-3H-naphtho[1,2-p]pyrazino[2,1-f][1]oxa[4,7,10,14]tetraazacycloheptadecine-3-carboxylate]",,,
235,179,"COc1nccc2c1C(=O)N[C@H](C(=O)NCCc1cc(C3CC3)no1)CC(=O)N(C)[C@@H](CC(C)C)C(=O)N1CC[C@@H](c3ccccc3)C[C@H]1C(=O)N[C@H](Cc1ccccc1)CO2 (single isomer, unassigned) [Example 671]",,,
